The values that follow come from patent US20240299345A1, “GINKGOLIDE B AND ITS DERIVATIVES FOR INHIBITING AND/OR REVERSING AGING” (CHINA MEDICAL UNIVERSITY, priority 2023, published 2024).

Data set [1] deals with 6-month-old female C57BL/6 mice. In words: GB in 6-month-old adult mice (steady state): osteocalcin, myofiber CSA, grip strength. Type of data set: in vivo, mouse. Conditions: 6-month-old female mice. The method, then:
Forelimb grip strength was measured by a grip strength meter (Muromachi Kikai Co., Tokyo, Japan). Each mouse performed five trials for force measurement, and the values were normalized to body and recorded. A rotarod test was carried out by using the rotarod treadmill (Singa Technology Corporation, Taoyuan City, Taiwan). The speed was adjusted to 4 rpm for 4 sec, 10 rpm for 10 sec, 20 rpm for 20 sec, and then 40 rpm until the mice fell. Mice were familiarized with the rotarod and balance beam by running 5 min for three consecutive days before the onset of experimentation. During the experiment, each mouse performed four trials, and the average time that each rodent was able to stay on top of the rotarod treadmill was recorded. The balance beam test was used to assess subtle motor coordination and balance. After initial training, mice were given four consecutive trials where they were required to cross 60 cm of a round beam (14 mm in diameter). The time for crossing the beam and the number of hind-feet slip were recorded. Hanging endurance was determined by Kondziella's inverted hanging screen test. Mice were putted at the center of grasped wire screen (bar thickness, 2 mm; mesh, 10 mm). After inverting the wire screen, the time of sustained limb tension on the screen were recorded. A fixed maximum hanging limit of 600 seconds was used. Each trial was repeated three times at 30-min interval, the mean values were recorded.
(§1) Serum was collected by cardiac puncture upon sacrifice.
The maintenance of muscle mass and strength in adulthood reduces the risk of sarcopenia and improves healthspan. Osteocalcin is necessary to maintain muscle mass and health throughout the whole life, and loss of osteocalcin after the age of 30 leads to muscle loss. Since GB increased osteocalcin in aged osteoblasts, we postulated that oral GB administration could increase osteocalcin and skeletal muscle mass in mice. In a proof-of-principle experiment, we gave GB to 6-month-old female mice equivalent to 30-year-old women for two months (FIG. 1A). […] GB administration enlarged the CSA of the tibialis anterior and soleus muscles (FIGS. 1C to 1E, p=0.021 and <0.0001, respectively) and increased forelimb grip strength (FIG. IF, p=0.036).

Data set [2] deals with circulating inflammatory cytokines and chemokines. The experiment in a line: Serum 40-plex cytokine/chemokine panel in aged mice. In kind it is in vivo, mouse. Conditions: of 40 detected, GB 2 months.
Source text: as §1

The test system of data set [3] is GA muscle nuclei. The experiment in a line: Single-nucleus RNA sequencing of GA muscle. Type of data set: in vivo, mouse. The method, then:
Single-nucleus isolation was performed as previously described 41. GA muscles were isolated from mice immediately following euthanasia. The muscles were minced and homogenized with homogenization buffer, 0.25M sucrose and 1% BSA diluted in Mg^2+-free, Ca^2+-free, RNase-free PBS (#AM9624, Invitrogen, Grand Island, NY, USA). The homogenates were incubated with 2.5% Triton-X100/RNase-free PBS at a 1:6 ratio for five minutes. After being filtered through a 100-um strainer, samples were centrifuged at 3000×g for 10 min at 4° C., resuspended in 2% BSA/RNase-free PBS, and then filtered through a 40-μm strainer again. Nuclei were labeled by DAPI with 0.2 U/μL RNase inhibitor (#N8080119, Thermo Fisher Scientific). Labeled nuclei were sorted by FACS Aria II Cell Sorter with 70 μm nozzle (BD Biosciences, San Jose, CA, USA) into 2% BSA/RNase-free PBS with RNase inhibitor. Isolated nuclei were observed by confocal fluorescent microscope (Leica TCS SP8, Wetzlar, Germany) to confirm integrity. To adjust the optimal concentration of nuclei for the 10X Chromium system, isolated nuclei were counted and diluted or concentrated by centrifugation at 250×g for 5 min at 4° C. Single-nucleus RNA-sequencing libraries were constructed by the Chromium Single Cell 3′ reagent kit v2 (10X Genomics, Pleasanton, CA, USA) per the manufacturer's protocol. Following the library preparation, the libraries were sequenced on the NovaSeq 6000 System (Illumina, San Diego, CA, USA) and the 10x Genomics cellranger count pipeline produced 6072 single-nucleus transcriptomes (2128, 2015 and 1929 transcriptomes for Young+Vehicle, Aged+Vehicle, and Aged+GB groups) with 25453, 27,741, and 34,120 reads per nuclei, and 1018, 923, and 1061 genes per nuclei for Young+Vehicle, Aged+Vehicle, and Aged+GB groups respectively.
The single-cell feature-barcode matrices from 10x Genomics cellranger count pipeline were imported into R version 4.1.3 and processed with Seurat 4.2.0. Next, ambient RNA was corrected by SoupX package43. […] Cell cycle genes were corrected for as described in Seurat's Cell-Cycle Scoring and Regression vignette. […] All remaining single-nuclei of each sample were then processed with dimension reduction and Louvain clustering as per Seurat's standard vignette. A combined Seurat object was also created following Seurat's integration protocol as described in Seurat's scRNA-seq integration using default parameters. Dimension reduction and clustering were also performed on the combined dataset as described above. Clusters were annotated using established cell type markers. […]

The subject of data set [4] is 20-month-old female C57BL/6 mice. The experiment in a line: Lifespan and cancer incidence analysis, lifelong GB from 20 months of age. In kind it is in vivo, mouse. The source says: The mice were not involved in any experiments to maximally reduce potential interference and stress to animals.
The test system of data set [5] is healthy adult humans. To be noted: short-term pharmacological studies; cited from earlier work.

Regarding `CC1C(=O)OC2C(O)C34C5CC(C(C)(C)C)C36C(OC(=O)C6O)OC4(C(=O)O5)C12O` (stereo not shown) [GB, Ginkgolide B], the “CSA of the soleus muscle” value in data set [1] (GB 12 mg/kg daily oral 2 months vs vehicle, p<0.0001) is “enlarged”. Moreover, in data set [1] (GB 12 mg/kg daily oral 2 months vs vehicle, p=0.021), the “CSA of the tibialis anterior muscle” value was “enlarged”. Also, in data set [1] (GB 12 mg/kg daily oral 2 months vs vehicle, p=0.036), the forelimb grip strength result is “increased”. Further, the circulating osteocalcin result in data set [1] (GB 12 mg/kg daily oral gavage 2 months vs vehicle, p=0.0114) is “significantly higher”. Besides, the “number of circulating proteins significantly altered” value in data set [2] worked out at 12. Also, the “reversal of aging-related changes in nucleus proportion” value in data set [3] (8/14 nuclear types, GA muscle of aged mice) is given as 57%. In addition, in data set [3] (GA muscle of aged mice), the “expression levels of Runx1 in myonucleus and number of aging-elicited Runx1+ Type 2b myonuclei” value was “reduced”. Moreover, in data set [3] (covering all 5 myonucleus subclusters altered by aging), the “aging-related changes in the numbers and proportion of myonuclei” value is given as “reversed”. Besides, the “number of Ptprc+ immune cells in skeletal muscle” value in data set [3] (particularly M2 and M2-like proliferating macrophages) is “increased”. For the same compound, in data set [4] (GB group, vehicle 891 days, p=0.0002 log-rank), the “age at 50% cumulative cancer incidence” value is recorded as 1025 days. Also, in data set [4] (GB vs vehicle aged mice), the aging-associated mortality entry is “delayed”, the “hazard ratio by Mantel-Haenszel” value came to 0.4577 and the “hazard ratio by log-rank test” value is reported as 0.3526. Further, the “macroscopic tumors detected by necropsy” value in data set [4] (GB-aged mice compared with vehicle group) is “less macroscopic tumors”. The median lifespan extension in data set [4] (from the inception of GB administration at 20 months, 12 mg/kg daily, p=0.0002 log-rank, 0.0064 Gehan-Breslow-Wilcoxon) is 30%. Besides, the “lifespan extension (summary statement)” value in data set [4] (lifelong oral GB in mice starting from 20 months old) stood at 20%. Further, in data set [4] (p=0.0011 and 0.03 by log-rank test), the “median lifespan extensions by tumor incidence” value was “observed in both tumor and non-tumor cohorts”. Further, the “extension of mean maximal lifespans of the 10% and 20% longest-lived mice” value in data set [4] (p=0.0286 and 0.0006) was “around 55 days”. In addition, the “tolerability of multiple administration” value in data set [5] is “well tolerated”.
